Test results as given in publication PMC7112848 (Journal of Virological Methods, 2008).

Experiments:
viral NAs = type: biochemical, reverse-genetic influenza A viruses rgH1N1, rgH5N1, rgH1N3
rgH5N1 NA = rgH5N1 NA (Influenza A virus, UniProt Q6DPL2); type: biochemical
Chain of rgH5N1 NA (Q6DPL2 whole entry, looked up): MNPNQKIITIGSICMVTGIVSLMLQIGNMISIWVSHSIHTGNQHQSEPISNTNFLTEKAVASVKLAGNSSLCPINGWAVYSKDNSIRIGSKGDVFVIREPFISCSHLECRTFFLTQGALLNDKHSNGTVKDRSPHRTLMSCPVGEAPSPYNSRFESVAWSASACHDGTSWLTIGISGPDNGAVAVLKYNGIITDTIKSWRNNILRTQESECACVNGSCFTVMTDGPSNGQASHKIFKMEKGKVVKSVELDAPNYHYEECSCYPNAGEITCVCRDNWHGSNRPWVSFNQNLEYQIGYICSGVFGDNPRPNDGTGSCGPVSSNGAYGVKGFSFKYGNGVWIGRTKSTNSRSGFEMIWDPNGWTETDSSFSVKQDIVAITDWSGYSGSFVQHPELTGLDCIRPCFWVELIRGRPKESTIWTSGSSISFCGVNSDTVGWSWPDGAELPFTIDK

`CC(=O)N[C@@H]1[C@@H](O)C[C@](Oc2ccc3c(C)cc(=O)oc3c2)(C(=O)O)O[C@H]1C(O)[C@H](O)CO` (stereo partly drawn) [MUNANA, 2′-(4-methylumbelliferyl)-α-D-N-acetylneuraminic acid] gave a Km (viral NAs) of 15 to 18 µM and a Km (rgH5N1 NA) of 15 ± 3 µM.
